According to publication PMC10959927, “Platinum iodido drugs show potential anti-tumor activity, affecting cancer cell metabolism and inducing ROS and senescence in gastrointestinal cancer cells” (Communications Biology, 2024):
“And” between values parts separate entries of the source, which are not always exact repeats. Identical values can stand only once.

Columns and labels:
NU-Foxn1nu nude mice [1] = test: Urine analysis of treated xenograft mice; type: in vivo, mouse
Method: (§1) PANC1 cells were then trypsinized and resuspended in RPMI culture medium with 40% Matrigel (no. 45354234, Corning® Matrigel® Basement Membrane Matrix, LDEV-free, Cultek, Spain) at a concentration of 1 × 10^5 cells per 50 μL, and then 50 μL of the resuspended cells were subcutaneously injected into the right and left flanks of female 8 week-old NU-Foxn1nu nude mice (Janvier Labs, France). Tumor growth and volumes were monitored every 2–3 days for up to 4 weeks with a caliper, and tumor volumes (mm^3) were computed using the formula: 0.5 × D12 × D2, where D1 and D2 are the width or the […] diameter and the length or the smallest diameter of a given tumor, respectively. At the end of the experiment, mice were sacrificed, and tumors extracted, photographed, and weighed. (ii) For xenograft in vivo treatment experiments, 1 × 10^6 PANC1 cells resuspended in RPMI culture medium supplemented with 40% Matrigel (Corning®) were orthotopically injected in the pancreas of female NU-Foxn1nu nude mice (Janvier Labs, France). Approximately 2 months post injection, tumors were excised, cut into identical pieces of ~50 mm^3 and implanted (with RPMI culture medium supplemented with 40% Matrigel® Corning®) subcutaneously into the left and right flanks of 15 8 week-old NU-Foxn1nu nude mice (Janvier, France). […] Control mice were treated with 100 µl of physiological saline (0.9% NaCl). Tumor volumes were determined twice per week by caliper measurements throughout the course of the study as described above. At the indicated end point, mice were sacrificed, weighed, blood was collected in EDTA tubes (Aquisel, Cat no. 107545), urine was collected in 1.5 ml Eppendorf tubes, and tumors were excised, weighed, photographed, and fixed in 4% Paraformaldehyde (Alfa Aesar™).
(§2) Whole blood was analyzed with an Element HT5, Veterinary Hematology Analyzer (Scil animal care company GmbH, Madrid, Spain) and plasma was analyzed at the Analytical Laboratory of the Hospital Fundación Jiménez Díaz. Plasma-EDTA samples were examined for markers of renal (urea, BUN, and creatinine) and liver [bilirubin and GGT (γ-Glutamyltransferase)] injury. Urine was analyzed for protein, creatinine and glucose. Urea, creatinine, and glucose were detected by enzymatic assays, total protein by turbidimetry, and bilirubin and GGT via a colorimetric assay in the Cobas® Roche 701 module (a fully automated, high throughput photometric analyzer for a large array of quantitative and qualitative in vitro tests), following the manufacturer’s instructions.

C57Bl6 mice [2] = test: In vivo safety: weight and Irwin's test after tail vein injection; set-up: species or system mouse; settings: 1.4 mg/kg tail vein injection, early acute time points
NU-Foxn1nu nude mice [3] = test: Whole blood hematology of treated xenograft mice; type: in vivo, mouse; settings: for Basophils / Eosinophils / Haemoglobin / Hematocrit / Lymphocytes / MCH / MCHC / MCV / MPV / Monocytes / Neutrophils / RDW-CV: individual mice
Method: as §1, §2

C57Bl6 mice [4] = test: Indirect calorimetry analyses (PhenoMaster); type: in vivo, mouse
Method: Indirect calorimetry analyses were carried out using a 16-chamber TSE PhenoMaster monitoring system (TSE Systems GmbH, Bad Homburg, Germany). Full access to food and water was continuously available, and intake was monitored using built-in devices located within each cage. Calorimetry measurements were carried out during a period of 72 h, according to animal weight, to exclude changes in body weight that would contribute to differences in energy expenditure measurements. […] Mice were introduced into individual chambers and were on a 12 h light-dark cycle (lights on at 07:00am) during the course of the experiment, with a maintained room temperature of 22 ± 2°C. Oxygen consumption and CO2 release was measured. From these values, respiratory exchange ratio (RER) was determined as VCO2/VO2 and energy expenditure (EE) was calculated as = ([…] + 1.232 x RER) x VO2. Locomotor activity was reported as the average light beam breaks (XT + YT) per min. XT and YT (T = total) were calculated from the sum of the ambulatory and fine movements. Water and food consumption (DRINK and FOOD, respectively, Fig. S8) were also monitored and recorded.

NU-Foxn1nu nude mice [5] = test: Plasma biochemistry (renal and liver injury markers) of treated xenograft mice; type: in vivo, mouse; settings: for BUN / Urea: blood
Method: as §1, §2

[6] = system: PANC1 cells in NU-Foxn1nu nude mice; test: Xenograft of pre-treated PANC1 cells; type: in vivo, mouse; settings: for Tumor Growth (mm3): ND: No Detected
Method: as §1

[7] = system: PANC1 xenografted tumors in NU-Foxn1nu nude mice; test: PANC1 xenograft in vivo treatment; set-up: species or system mouse; settings: for Fold-change in tumor volume vs d0: individual tumors
Method: as §1

[8] = 17 days of I5 treatment, 1.4 mg/kg r.o. or i.p.
[9] = Intra-Peritoneal group (I5 1.4 mg/kg), single mice
[10] = Intra-Peritoneal group (I5 1.4 mg/kg), single mice, 1.4 mg/kg
[11] = Retro-Orbital group (I5 1.4 mg/kg), single mice, 1.4 mg/kg
[12] = Intra-Peritoneal group (I5 1.4 mg/kg), d17, single mice, 1.4 mg/kg
[13] = Retro-Orbital group (I5 1.4 mg/kg), d17, single mice, 1.4 mg/kg
[14] = PANC1 xenograft, 1.4 mg/kg r.o.

## CC(C)[NH][Pt@SP3]([I])([I])[NH]C(C)C [I5, trans-[PtI2(isopropylamine)2]]
NU-Foxn1nu nude mice [1]; [8]
  adverse effects on urine analyses: no adverse effects
NU-Foxn1nu nude mice [1]; [9]
  Creatinine in Urine: 59 mg/dL
  Protein/Creatinine in Urine: 8814
NU-Foxn1nu nude mice [1]; [10]
  Glucose in Urine: 40 mg/dL and 20 mg/dL
  Protein in Urine: 80 mg/dL and 52 mg/dL
NU-Foxn1nu nude mice [1]; Retro-Orbital group (I5 1.4 mg/kg), single mice
  Glucose in Urine: 30 mg/dL
NU-Foxn1nu nude mice [1]; [11]
  Creatinine in Urine: 56 mg/dL and 57 mg/dL and 61 mg/dL
  Protein/Creatinine in Urine: 10536 and 9221 and 16383
C57Bl6 mice [2]
  adverse effects on weight and neurological perturbations (Irwin's test): no adverse effects
NU-Foxn1nu nude mice [3]; [8]
  adverse effects on hematocrit parameters: no adverse effects
NU-Foxn1nu nude mice [3]; Intra-peritoneal
  Basophils: 0.41 109 cells/L and 0.45 109 cells/L and 0.47 109 cells/L and 0.86 109 cells/L
  Eosinophils: 0.45 109 cells/L and 0.33 109 cells/L and 0.19 109 cells/L and 0.47 109 cells/L
  Haemoglobin: 18.5 g/dL and 17.5 g/dL and 19.1 g/dL and 17.7 g/dL
  Hematocrit: 43.4% and 39.8% and 44.6%
  Lymphocytes: 4.49 109 cells/L and 2.36 109 cells/L and 3.04 109 cells/L and 4.43 109 cells/L
  MCH: 19.3 pg and 19.1 pg and 19.2 pg and 19.7 pg
  MCHC: 42.6 g/dL and 44 g/dL and 42.8 g/dL and 44.4 g/dL
  MCV: 45.3 fL and 43.5 fL and 44.8 fL and 44.2 fL
  MPV: 6.1 fL and 5.5 fL and 6 fL
  Monocytes: 1.17 109 cells/L and 0.96 109 cells/L and 0.45 109 cells/L and 3.1 109 cells/L
  Neutrophils: 4.24 109 cells/L and 2.95 109 cells/L and 1.59 109 cells/L and 5.08 109 cells/L
  RDW-CV: 13.9% and 14.8% and 14.3%
NU-Foxn1nu nude mice [3]; Retro-orbital
  Basophils: 0.43 109 cells/L and 0.62 109 cells/L and 0.64 109 cells/L
  Eosinophils: 0.21 109 cells/L and 0.31 109 cells/L and 0.34 109 cells/L
  Haemoglobin: 18.3 g/dL
  Hematocrit: 42.9% and 41.4% and 42.8%
  Lymphocytes: 2.46 109 cells/L and 3.66 109 cells/L and 5.37 109 cells/L
  MCH: 19 pg and 20.5 pg and 19.2 pg
  MCHC: 42.6 g/dL and 44.2 g/dL and 42.9 g/dL
  MCV: 44.5 fL and 46.3 fL and 44.8 fL
  MPV: 5.6 fL and 6.1 fL and 5.2 fL
  Monocytes: 0.91 109 cells/L and 0.87 109 cells/L and 0.47 109 cells/L
  Neutrophils: 3.45 109 cells/L and 3.24 109 cells/L and 2.71 109 cells/L
  RDW-CV: 14.2% and 14.7% and 14.6%
C57Bl6 mice [4]; C57Bl6 mice, 1.4 mg/kg i.v.
  RER, EE, locomotor activity, food and water intake vs untreated: no differences were observed
C57Bl6 mice [4]; Fig. S8B left graph, individual mice
  DRINK: 4.49 mL and 10.13 mL and 7.81 mL and 7.64 mL and 8.16 mL
NU-Foxn1nu nude mice [5]; [8]
  adverse effects on plasma blood analyses: no adverse effects
NU-Foxn1nu nude mice [5]; Intra-Peritoneal group (I5 1.4 mg/kg), d17, single mice
  GGT: < 3 UI/L
NU-Foxn1nu nude mice [5]; [12]
  Serum Creatinine: 0.2 mg/dL and 0.17 mg/dL and 0.22 mg/dL
  BUN: 19 mg/dL and 18 mg/dL and 16 mg/dL
  Urea: 40 mg/dL and 39 mg/dL and 38 mg/dL and 35 mg/dL
NU-Foxn1nu nude mice [5]; Retro-Orbital group (I5 1.4 mg/kg), d17, single mice
  GGT: < 3 UI/L
NU-Foxn1nu nude mice [5]; [13]
  Serum Creatinine: 0.17 mg/dL and 0.2 mg/dL and 0.21 mg/dL
  Total Bilirubin: < 0.15 mg/dL and < 0.21 mg/dL
  BUN: 16 mg/dL and 19 mg/dL
  Urea: 40 mg/dL and 34 mg/dL and 35 mg/dL
[6]; Day 7
  Tumor Take (%): 0%
[6]; Day 10
  Tumor Take (%): 12.5%
[6]; Day 10, individual tumors
  Tumor Growth (mm3): 10.7 mm3
[6]; Day 13
  Tumor Take (%): 12.5%
[6]; Day 13, individual tumors
  Tumor Growth (mm3): 7.7 mm3
[6]; Day 16
  Tumor Take (%): 25%
[6]; Day 16, individual tumors
  Tumor Growth (mm3): 9.4 mm3 and 8.5 mm3
[6]; Day 20
  Tumor Take (%): 25%
[6]; Day 20, individual tumors
  Tumor Growth (mm3): 7.4 mm3 and 10.1 mm3
[6]; Day 23
  Tumor Take (%): 37.5%
[6]; Day 23, individual tumors
  Tumor Growth (mm3): 8 mm3 and 10.9 mm3 and 9.7 mm3
[6]; Day 28
  Tumor Take (%): 62.5%
[6]; Day 28, individual tumors
  Tumor Growth (mm3): 9.8 mm3 (2×) and 10.8 mm3 and 10.9 mm3 and 11.6 mm3 and 8.7 mm3
[6]; PANC1 cells pre-treated 24 h with 20 µM, injected s.c. into nude mice
  tumor volumes and weights on day 28: significantly reduced volumes and weights
[6]; PANC1 cells pre-treated 24 h with 20 µM, injected s.c. into nude mice, 28 days
  tumor take and growth: clear delay in tumor take and growth
[6]; individual tumors
  Tumor Weight: 0.1301 g and 0.0568 g and 0.1068 g and 0.0882 g and 0.0887 g and 0.1001 g
[7]; IP, 0 days post-treatment initiation
  Fold-change in tumor volume vs d0: 1
[7]; IP, 3 days post-treatment initiation
  Fold-change in tumor volume vs d0: 1.05 and 1.45 and 0.79 and 1.51 and 1.63 and 0.95 and 1.1
[7]; IP, 7 days post-treatment initiation
  Fold-change in tumor volume vs d0: 1.29 and 1.56 and 0.79 and 1.32 and 1.71 and 0.86 and 1.49
[7]; IP, 10 days post-treatment initiation
  Fold-change in tumor volume vs d0: 1.75 and 2.48 and 0.96 and 2.5 and 2.73 and 1.37 and 2.28
[7]; IP, 14 days post-treatment initiation
  Fold-change in tumor volume vs d0: 2.21 and 4.16 and 0.85 and 2.92 and 3.98 and 1.35 and 3.75
[7]; IP, 17 days post-treatment initiation
  Fold-change in tumor volume vs d0: 3.08 and 4.39 and 0.91 and 3.92 and 4.58 and 1.62 and 4.25
[7]; PANC1 xenograft, 1.4 mg/kg i.p.
  tumor growth: reduced tumor growth
[7]; [14]
  tumor growth: reduced tumor growth
  tumor volume at conclusion of the experiment: statistically significant effect on tumor volume
  tumor weight at conclusion of the experiment: marked reduction in tumor weight
[7]; RO, 0 days post-treatment initiation
  Fold-change in tumor volume vs d0: 1
[7]; RO, 3 days post-treatment initiation
  Fold-change in tumor volume vs d0: 0.66 and 0.95 and 1.12 and 1.34 and 1.68
[7]; RO, 7 days post-treatment initiation
  Fold-change in tumor volume vs d0: 0.81 and 1.29 and 1.57 and 1.05 and 1.08
[7]; RO, 10 days post-treatment initiation
  Fold-change in tumor volume vs d0: 0.74 and 2.21 and 2.36 and 1.14 and 1.44
[7]; RO, 14 days post-treatment initiation
  Fold-change in tumor volume vs d0: 0.85 and 2.64 and 3.43 and 1.26 and 1.18
[7]; RO, 17 days post-treatment initiation
  Fold-change in tumor volume vs d0: 1.43 and 3.89 and 4.46 and 1.56 and 1.13
